Measurements as given in patent US8506945B2, “Polymers with structure-defined functions” (Smith & Nephew, PLC., priority 2001, dated 2013).
pIC50: −log10 of the molar value.

Legend:
[1] = system: ovine meniscal chondrocytes P3; assay: Cytotoxicity on chondrocyte culture, PicoGreen DNA assay; assay type: cell-based; conditions: 48 h incubation, DNA by PicoGreen assay
Text: The high chemical reactivity of protease inhibitors represents toxicological problems both in vitro and potentially in vivo. […] DNA concentrations were obtained using a PicoGreen assay.

[2] = biological target: Thrombin (Homo sapiens, UniProt P00734); assay: biochemical
[3] = biological target: Elastase; conditions: Elastase (1.2 μg/ml), 20° C., 0.2M TRIS buffer

Q: Which results are given for `NCCc1ccc(S(=O)(=O)F)cc1` [AEBSF, 4-(2-aminoethyl)benzenesulphonylfluoride]?
A: concentration at which significant toxicity deviation from the vehicle alone begins [1]: 8000 ng/mL; pIC50 [2]: 3.15; pIC50 [3]: 3.51
